From ChEMBL document CHEMBL2406912, “In vivo antimalarial activity of novel 2-hydroxy-3-anilino-1,4-naphthoquinones obtained by epoxide ring-opening reaction” (2013) come the findings set out here.

Molecules are shown by their SMILES.

Holding throughout (type): functional
Experiment [1] has as its system Plasmodium berghei. The experiment in a line: Antimalarial activity against Plasmodium berghei NK65 infected in Swiss albino mouse assessed as increase of survival days of host at 100 mg/kg, po qd for 4 days (reference value: 20 +/- 2.7 days).
The test system of experiment [2] is Plasmodium berghei. Description: Antimalarial activity against Plasmodium berghei NK65 infected in Swiss albino mouse assessed as inhibition of parasitemia at 100 mg/kg, po qd for 4 days measured on day 5 of after infection relative to control.
Experiment [3] relates to Plasmodium berghei. Description: Antimalarial activity against Plasmodium berghei NK65 infected in Swiss albino mouse assessed as inhibition of parasitemia at 100 mg/kg, po qd for 4 days measured on day 7 of after infection relative to control.
In experiment [4] the test system is Plasmodium berghei. The experiment in a line: Antimalarial activity against Plasmodium berghei NK65 infected in Swiss albino mouse assessed as inhibition of parasitemia at 10 mg/kg, po qd for 4 days measured on day 5 to 7 of after infection relative to control.
In experiment [5] the test system is Plasmodium berghei. Description: Antimalarial activity against Plasmodium berghei NK65 infected in Swiss albino mouse assessed as increase of survival days of host at 10 mg/kg, po qd for 4 days (reference value: 20 +/- 2.7 days).

On to `COc1ccc(NC2=C(O)C(=O)c3ccccc3C2=O)cc1`, for which, in the experiment with Plasmodium berghei [1], the MSD came to 26 days. The figures for the inhibition in vivo at 100 mg/kg in the experiment on Plasmodium berghei [2] and with Plasmodium berghei [3] were 66.6% and 25.9%, respectively.

Consider `O=C1C(O)=C(Nc2ccccc2)C(=O)c2ccccc21`, for which the MSD in the experiment on Plasmodium berghei [1] was 32.5 days. For the same molecule, the results for the inhibition in vivo at 100 mg/kg in the experiment with Plasmodium berghei [2] and in the experiment on Plasmodium berghei [3] were 53.3% and 18.5%, respectively.

For `Cc1cccc(C)c1NC1=C(O)C(=O)c2ccccc2C1=O`, in the experiment with Plasmodium berghei [1], the MSD stood at 26.7 days. The inhibition in vivo at 100 mg/kg with Plasmodium berghei [2] and in the experiment with Plasmodium berghei [3] was 0% in each case.

For `CCN(CC)CCCC(C)Nc1ccnc2cc(Cl)ccc12` (stereo unspecified) [CHLOROQUINE], the inhibition in vivo (in general, the change of the read-out against control, counted positive when it falls) at 10 mg/kg in the experiment with Plasmodium berghei [4] was 98%. The MSD with Plasmodium berghei [5] was greater than 60 days.
